Source: ChEMBL document CHEMBL1201862, “PubChem BioAssay data set” (2004)
Activity calls are given as the source filed them.

Legend:
ORF 73 = ORF 73 (Human herpesvirus 8, UniProt O40947); test: inhibitors of C-LANA binding to LBS DNA, dose response, biochemical, fluorescence polarization, cherry-picked samples (AID 504725); parameters: species or system Human gammaherpesvirus 8;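 further: fluorescence polarization of a labeled DNA duplex reporting LANA DNA binding; potency is for inhibitors that block LANA binding to the DNA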
[1] = Glucagon-like peptide 1 release potency, NCI-H716 cell line, dose-response, half-maximal inhibitory concentration (AID 1117344); type: functional, cell-based
[2] = molecular target: Envelope glycoprotein gp160 (Human immunodeficiency virus 1, UniProt Q6QLK5); test: inhibitors of HIV fusion peptide binding, primary screen, biochemical, uHTS, fluorescence dequenching (AID 1986)
[3] = cytotoxicity toward HT-29 cells – cell-based, CellTiter-Glo luminescence, IC50, dose response (AID 1117330); type: functional
[4] = cytotoxicity toward HCT116 cells – cell-based, CellTiter-Glo luminescence, IC50, dose response (AID 1117332); type: functional; conditions: HCT-116
[5] = half-maximal inhibitory concentration for glucagon-like peptide-1 release, STC-1 cell line, dose-response (AID 1117345); type: functional, cell-based
[6] = RKO cell viability reduction, dose response, CellTiter-Glo luminescence (AID 1117322); type: functional
[7] = CellTiter-Glo luminescent dose response of DLD-1 viability loss (AID 1117352); type: functional
[8] = system: Streptococcus sp. 'group A'; test: growth inhibition of control SK(-) GAS strain, dose response, counter-screen for streptokinase expression inhibitor project, luminescence, kanamycin, BacTiterGlo, confirmation (AID 1900); type: functional, organism-based
[9] = HIV-1 Env-mediated cell fusion inhibitors, dose response, CCR5-tropic Env (AID 2279); type: functional
[10] = SNU-C1 cell viability reduction, dose response, CellTiter-Glo luminescence (AID 1117323); type: functional, cell-based
[11] = Concentration-dependent survival of SW480 colon cancer line, luminescence detection with CellTiter-Glo, half-maximal inhibitory concentration (AID 1117338); type: functional
[12] = cytotoxicity toward Colo320 cells – cell-based, CellTiter-Glo luminescence, IC50, dose response (AID 1117334); type: functional; conditions: COLO 320
Streptococcus = test: Group A Streptococcus viability loss, dose response, counter-screen for streptokinase expression inhibitor project, luminescence, BacTiterGlo (AID 1915); type: functional, organism-based;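 further: potency for reduction of bacterial viability or growth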
HeLa = test: HeLa cell cytotoxicity, dose response, cytotoxicity control, 24 h, cherry-picked samples (AID 504726); type: functional, cell-based; conditions: Homo sapiens;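 further: potency for cytotoxicity as loss of luminescence signal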
[13] = molecular target: Eukaryotic translation initiation factor 4H (Homo sapiens, UniProt Q15056); test: human eIF4H binding inhibitors, primary screen, translation initiation inhibitor project, biochemical, uHTS, fluorescence polarization (AID 2012)
[14] = molecular target: Polyadenylate-binding protein 1 (Homo sapiens, UniProt P11940); test: PABP poly(A) RNA binding inhibitors, primary screen, biochemical, fluorescence polarization, uHTS (AID 2014)
Chaperone protein dnaK = Chaperone protein dnaK (Escherichia coli, UniProt C3TRK2); test: DnaK beta-domain binding affinity, SAR follow-up, orthogonal assay for DnaK modulator project, biophysical, isothermal titration calorimetry, full-length DnaK (AID 1495)
Streptokinase A = molecular target: T1, Streptokinase A (Streptococcus pyogenes serotype M1, UniProt P10520); test: S. pyogenes streptokinase expression inhibitors, potency, dose response, plasminogen activation absorbance, OD405 (AID 1914); type: functional, Streptococcus pyogenes M1 GAS;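 further: secreted streptokinase activity via plasminogen activation per viability signal from cell pellet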
T1 sequence (P10520 whole entry): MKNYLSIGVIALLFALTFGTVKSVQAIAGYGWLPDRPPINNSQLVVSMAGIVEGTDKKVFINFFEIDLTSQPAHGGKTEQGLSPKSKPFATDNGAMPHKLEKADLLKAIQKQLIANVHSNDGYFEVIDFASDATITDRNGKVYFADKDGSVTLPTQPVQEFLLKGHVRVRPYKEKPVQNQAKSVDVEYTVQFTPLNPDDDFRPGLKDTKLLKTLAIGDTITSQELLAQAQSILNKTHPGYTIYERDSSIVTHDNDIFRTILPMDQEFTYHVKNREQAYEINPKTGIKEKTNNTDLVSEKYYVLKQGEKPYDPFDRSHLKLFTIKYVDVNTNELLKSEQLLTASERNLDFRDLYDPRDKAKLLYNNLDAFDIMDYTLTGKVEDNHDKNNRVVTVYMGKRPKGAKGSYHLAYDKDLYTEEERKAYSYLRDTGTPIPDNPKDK

Phospholipase A2 = Phospholipase A2 (Homo sapiens, UniProt P04054); type: functional;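 further: confirmatory dose-response counterscreen on phospholipase A2, testing hits that came from an ultra-high-throughput screen for ATG4B inhibitors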
Cysteine protease ATG4B = molecular target: T2, Cysteine protease ATG4B (Homo sapiens, UniProt Q9Y4P1); type: functional;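 further: Fluorescence-based dose-response confirmation assay measuring inhibition of ATG4B activity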
T2 sequence (Q9Y4P1 whole entry): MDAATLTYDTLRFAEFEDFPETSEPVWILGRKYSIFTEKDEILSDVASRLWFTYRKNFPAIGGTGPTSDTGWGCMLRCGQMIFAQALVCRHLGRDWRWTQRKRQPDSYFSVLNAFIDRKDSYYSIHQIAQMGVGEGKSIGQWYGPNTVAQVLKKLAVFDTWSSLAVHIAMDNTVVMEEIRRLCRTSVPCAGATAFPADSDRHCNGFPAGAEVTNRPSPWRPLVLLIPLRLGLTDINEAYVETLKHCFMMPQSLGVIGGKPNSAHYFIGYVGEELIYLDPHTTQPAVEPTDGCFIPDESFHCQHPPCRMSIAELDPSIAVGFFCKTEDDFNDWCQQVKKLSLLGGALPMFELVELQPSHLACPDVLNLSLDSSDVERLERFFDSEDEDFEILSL

[15] = molecular target: T3, Endoribonuclease toxin MazF (Escherichia coli K-12, UniProt P0AE70); test: fluorescent RNA oligo signal without MazF, dose response, counter-screen for MazEF activator project, biochemical, fluorescence, single-stranded RNase substrate (AID 588502); type: functional
T3 sequence (P0AE70 whole entry): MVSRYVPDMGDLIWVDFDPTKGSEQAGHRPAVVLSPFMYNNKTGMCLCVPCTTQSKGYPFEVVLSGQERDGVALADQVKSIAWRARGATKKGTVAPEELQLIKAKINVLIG

[16] = molecular target: FAD-linked sulfhydryl oxidase ALR (Homo sapiens, UniProt P55789); test: inhibitors of human ALR sulfhydryl oxidase, dose response, biochemical, H2O2 detection, luminescence, cherry-pick (AID 493248)
Salmon testes DNA = test: DNA intercalators displacing acridine orange, dose response, artefact control for KSHV LANA DNA-binding inhibitor project, biochemical, fluorescence polarization, cherry-picked samples, set 2 (AID 504727); parameters: species or system Salmonidae
[17] = molecular target: T3, Endoribonuclease toxin MazF; test: MazF toxin RNase activators, dose response, biochemical, fluorescence, single-stranded RNA substrate, uHTS hits (AID 588481); type: functional
[18] = molecular target: Melanin-concentrating hormone receptor 1 (Homo sapiens, UniProt Q99705); test: Late-stage fluorescence-based counterscreen for antagonists of the G-protein coupled receptor 7 (GPR7): cell-based dose response assay to identify antagonists of the melanin-concentrating hormone receptor 1 (MCHR1). [Related pubchem assays (depositor defined):AID1861, AID1880, AID1952, AID2148, AID2251, AID2257, AID485339]; type: functional;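 further: stimulated with 30 nM MCH peptide agonist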
[19] = molecular target: Female germline-specific tumor suppressor gld-1 (Caenorhabditis elegans, UniProt Q17339); test: inhibitors of GLD-1 binding to TGE RNA, dose response, biochemical, fluorescence polarization, C. elegans (AID 2802);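 further: fluorescence polarization of labeled TGE RNA bound by purified gld-1 protein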
Protein Rev = Protein Rev (Human immunodeficiency virus type 1 group M subtype B (isolate HXB2)(HIV-1), UniProt P04618); test: inhibitors of Rev binding to RRE RNA, dose response, biochemical, fluorescence polarization, HIV-1 (AID 434976); parameters: species or system Human immunodeficiency virus 1
Fibrinogen beta chain [20] = molecular target: T4, Fibrinogen beta chain (Homo sapiens, UniProt P02675); test: Fluorescence polarization-based biochemical high throughput dose response assay to identify inhibitors that disrupt the binding of a cyclic peptide (Tn7) to the fibrin proteolytic product D-Dimer and fragment E complex [DD(E )].
Fibrinogen beta chain [21] = molecular target: T4, Fibrinogen beta chain; test: Fluorescence polarization-based biochemical high throughput dose response assay to identify inhibitors that disrupt the binding of a cyclic peptide (Tn6) to the fibrin proteolytic product D-Dimer and fragment E complex [DD(E )].
[22] = molecular target: T5, Eukaryotic translation initiation factor 2-alpha kinase 3 (Homo sapiens, UniProt Q9NZJ5); test: Dose response cell-based high-throughput screening assay to measure PERK inhibition. [Related pubchem assays: 1416 ]; type: functional
[23] = molecular target: T5, Eukaryotic translation initiation factor 2-alpha kinase 3; test: Counterscreen assay for PERK inhibitors: Dose response cell-based high throughput screening assay to measure inhibition of PERK at 6 hours. [Related pubchem assays: 1522, 1416 ]; type: functional
[24] = cytotoxicity in BJeHLT fibroblasts, dose response, counter-screen for Ras selective lethality project, BJeHLT cells, dry powder (AID 493052); type: functional, cell-based; conditions: Homo sapiens
[25] = viability loss in HRASV12 DRD fibroblasts, dose response, cell-based, DRD BJ fibroblasts, dry powder (AID 493049); type: functional
[26] = viability loss in BJeLR (HRASV12) cells, primary screen, Ras selective lethality project, cell-based, Alamar Blue, dry powder (AID 493045); type: functional
[27] = cytotoxicity in BJeH fibroblasts, dose response, counter-screen for Ras selective lethality project, BJeH cells, dry powder (AID 493054); type: functional, cell-based
[28] = molecular target: T6, Mannose-6-phosphate isomerase (Homo sapiens, UniProt P34949); test: inhibitors of human PMI, primary screen, biochemical, fluorescence intensity, coupled assay (AID 1209)
T6 sequence (P34949 whole entry): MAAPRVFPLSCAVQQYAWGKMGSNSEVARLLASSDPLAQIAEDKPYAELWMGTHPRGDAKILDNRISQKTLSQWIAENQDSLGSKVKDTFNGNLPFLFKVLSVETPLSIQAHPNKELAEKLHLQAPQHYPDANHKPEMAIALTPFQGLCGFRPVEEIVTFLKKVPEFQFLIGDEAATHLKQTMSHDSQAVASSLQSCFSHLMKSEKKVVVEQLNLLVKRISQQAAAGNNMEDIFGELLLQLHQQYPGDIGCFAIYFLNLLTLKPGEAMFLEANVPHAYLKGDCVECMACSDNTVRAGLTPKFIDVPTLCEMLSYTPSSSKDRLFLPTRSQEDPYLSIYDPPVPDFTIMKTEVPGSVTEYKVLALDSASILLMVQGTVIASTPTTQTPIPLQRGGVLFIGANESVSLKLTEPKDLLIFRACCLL

Phosphomannomutase 2 = Phosphomannomutase 2 (Homo sapiens, UniProt O15305); test: Counter screen SAR assay for PMM2 inhibitors via a fluorescence intensity assay. [Related pubchem assays (depositor defined):AID1545, AID1574]
[29] = molecular target: Eukaryotic translation initiation factor 4E (Mus musculus, UniProt P63073); test: eIF4E–eIF4G protein interaction inhibitors, dose response, biochemical, TR-FRET (AID 855); type: functional;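 further: potency for disrupting eIF4E binding to eIF4GI seen as loss of FRET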
[30] = cytotoxicity toward NIH3T3 fibroblasts, dose response, counter-screen, cell-based, ATP luminescence, mouse fibroblasts (AID 2010); type: functional;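 further: cells exposed to compound for about 90 hours before reading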
[31] = molecular target: T6, Mannose-6-phosphate isomerase; test: PMI enzyme inhibitors, confirmation, biochemical, fluorescence intensity (AID 1535)
[32] = inhibitors of intracellular T. cruzi replication, confirmation, NIH3T3 host cells, beta-gal luminescence (AID 2044); type: functional, cell-based;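 further: intracellular parasites grown in NIH/3T3 mouse fibroblasts as host cells; luminescent beta-galactosidase reporter signal from transgenic T. cruzi replicating inside host cells; inhibitors lower the luminescence signal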
[33] = molecular target: DNA dC->dU-editing enzyme APOBEC-3G (Homo sapiens, UniProt Q9HC16); test: Dose Response confirmation of small molecule APOBEC3G DNA Deaminase Inhibitors via a fluorescence-based single-stranded DNA deaminase assay. [Related pubchem assays (depositor defined):AID493012, AID493028]; type: functional
DNA dC->dU-editing enzyme APOBEC-3G, sequence (Q9HC16 whole entry): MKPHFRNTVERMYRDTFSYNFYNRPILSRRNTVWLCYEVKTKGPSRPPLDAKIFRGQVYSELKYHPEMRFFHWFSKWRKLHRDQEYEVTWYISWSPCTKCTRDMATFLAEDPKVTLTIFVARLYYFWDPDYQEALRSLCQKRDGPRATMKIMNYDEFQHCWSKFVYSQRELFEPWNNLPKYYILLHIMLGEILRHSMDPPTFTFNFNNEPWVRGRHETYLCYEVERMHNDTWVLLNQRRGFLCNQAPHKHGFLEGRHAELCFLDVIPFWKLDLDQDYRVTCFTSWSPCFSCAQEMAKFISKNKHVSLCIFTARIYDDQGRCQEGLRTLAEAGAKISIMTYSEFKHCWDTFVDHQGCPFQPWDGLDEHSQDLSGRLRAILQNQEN

T4 sequence (P02675 whole entry, the tested form may be a part): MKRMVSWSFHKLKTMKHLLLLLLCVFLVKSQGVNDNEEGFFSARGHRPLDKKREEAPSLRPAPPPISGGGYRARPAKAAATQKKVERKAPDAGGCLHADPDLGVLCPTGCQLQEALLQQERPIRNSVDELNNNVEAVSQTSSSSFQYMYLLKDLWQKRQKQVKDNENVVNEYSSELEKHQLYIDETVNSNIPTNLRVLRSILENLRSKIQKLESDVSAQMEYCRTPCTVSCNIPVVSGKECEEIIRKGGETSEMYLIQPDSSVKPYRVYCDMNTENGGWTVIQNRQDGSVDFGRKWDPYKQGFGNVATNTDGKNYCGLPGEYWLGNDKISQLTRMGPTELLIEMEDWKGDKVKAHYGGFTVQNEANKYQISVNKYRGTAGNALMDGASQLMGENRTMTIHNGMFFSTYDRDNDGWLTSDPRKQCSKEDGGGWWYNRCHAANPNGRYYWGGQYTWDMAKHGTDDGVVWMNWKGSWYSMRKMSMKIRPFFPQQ
T5 sequence (Q9NZJ5 whole entry): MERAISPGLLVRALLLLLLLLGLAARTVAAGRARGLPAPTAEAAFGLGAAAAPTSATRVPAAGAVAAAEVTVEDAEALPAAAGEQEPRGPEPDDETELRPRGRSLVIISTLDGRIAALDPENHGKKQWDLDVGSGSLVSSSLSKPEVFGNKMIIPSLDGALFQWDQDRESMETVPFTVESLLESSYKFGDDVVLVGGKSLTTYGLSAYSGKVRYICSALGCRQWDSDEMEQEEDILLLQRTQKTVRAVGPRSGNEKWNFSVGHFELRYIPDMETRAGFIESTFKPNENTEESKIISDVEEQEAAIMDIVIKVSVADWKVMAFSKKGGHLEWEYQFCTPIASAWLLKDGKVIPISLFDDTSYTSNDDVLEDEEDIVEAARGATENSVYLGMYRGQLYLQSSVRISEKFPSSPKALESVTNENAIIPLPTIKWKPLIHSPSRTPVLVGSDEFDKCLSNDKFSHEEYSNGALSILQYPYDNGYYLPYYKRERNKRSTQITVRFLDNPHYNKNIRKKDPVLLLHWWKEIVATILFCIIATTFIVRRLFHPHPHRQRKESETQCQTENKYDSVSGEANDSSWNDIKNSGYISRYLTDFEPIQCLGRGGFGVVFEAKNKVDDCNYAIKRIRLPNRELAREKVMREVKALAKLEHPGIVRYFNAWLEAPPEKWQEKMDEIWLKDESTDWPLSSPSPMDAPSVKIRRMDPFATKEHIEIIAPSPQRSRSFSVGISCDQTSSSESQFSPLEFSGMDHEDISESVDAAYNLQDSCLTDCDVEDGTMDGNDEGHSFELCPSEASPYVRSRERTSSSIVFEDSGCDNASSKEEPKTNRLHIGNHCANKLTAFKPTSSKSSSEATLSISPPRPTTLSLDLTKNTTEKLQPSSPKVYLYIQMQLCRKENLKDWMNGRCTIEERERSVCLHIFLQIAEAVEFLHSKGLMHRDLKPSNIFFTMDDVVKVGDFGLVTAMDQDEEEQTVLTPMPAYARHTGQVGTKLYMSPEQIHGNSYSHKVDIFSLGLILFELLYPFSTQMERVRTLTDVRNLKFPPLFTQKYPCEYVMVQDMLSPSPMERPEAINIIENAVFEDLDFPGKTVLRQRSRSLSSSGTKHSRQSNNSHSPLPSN
Chaperone protein dnaK, sequence (C3TRK2 whole entry): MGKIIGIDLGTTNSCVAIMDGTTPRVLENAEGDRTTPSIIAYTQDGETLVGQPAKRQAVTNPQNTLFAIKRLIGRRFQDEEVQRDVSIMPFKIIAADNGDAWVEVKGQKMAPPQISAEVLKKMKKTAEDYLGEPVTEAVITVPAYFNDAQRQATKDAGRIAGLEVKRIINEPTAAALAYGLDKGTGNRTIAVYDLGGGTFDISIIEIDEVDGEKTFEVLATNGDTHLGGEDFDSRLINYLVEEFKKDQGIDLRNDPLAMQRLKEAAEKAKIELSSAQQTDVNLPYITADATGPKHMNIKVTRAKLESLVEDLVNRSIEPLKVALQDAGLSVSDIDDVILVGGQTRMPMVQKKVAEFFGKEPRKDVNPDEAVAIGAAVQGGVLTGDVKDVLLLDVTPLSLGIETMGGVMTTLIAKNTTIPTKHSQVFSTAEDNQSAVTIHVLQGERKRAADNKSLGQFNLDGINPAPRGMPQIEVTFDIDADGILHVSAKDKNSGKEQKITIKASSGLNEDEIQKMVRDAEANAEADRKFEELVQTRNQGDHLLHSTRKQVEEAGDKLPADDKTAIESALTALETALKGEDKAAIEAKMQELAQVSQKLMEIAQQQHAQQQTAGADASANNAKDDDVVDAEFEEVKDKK
Protein Rev, sequence (P04618 whole entry, the tested form may be a part): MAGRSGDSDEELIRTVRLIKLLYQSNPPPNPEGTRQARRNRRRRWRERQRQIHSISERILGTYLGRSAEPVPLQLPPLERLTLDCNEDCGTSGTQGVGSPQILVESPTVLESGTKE
ORF 73, sequence (O40947 whole entry): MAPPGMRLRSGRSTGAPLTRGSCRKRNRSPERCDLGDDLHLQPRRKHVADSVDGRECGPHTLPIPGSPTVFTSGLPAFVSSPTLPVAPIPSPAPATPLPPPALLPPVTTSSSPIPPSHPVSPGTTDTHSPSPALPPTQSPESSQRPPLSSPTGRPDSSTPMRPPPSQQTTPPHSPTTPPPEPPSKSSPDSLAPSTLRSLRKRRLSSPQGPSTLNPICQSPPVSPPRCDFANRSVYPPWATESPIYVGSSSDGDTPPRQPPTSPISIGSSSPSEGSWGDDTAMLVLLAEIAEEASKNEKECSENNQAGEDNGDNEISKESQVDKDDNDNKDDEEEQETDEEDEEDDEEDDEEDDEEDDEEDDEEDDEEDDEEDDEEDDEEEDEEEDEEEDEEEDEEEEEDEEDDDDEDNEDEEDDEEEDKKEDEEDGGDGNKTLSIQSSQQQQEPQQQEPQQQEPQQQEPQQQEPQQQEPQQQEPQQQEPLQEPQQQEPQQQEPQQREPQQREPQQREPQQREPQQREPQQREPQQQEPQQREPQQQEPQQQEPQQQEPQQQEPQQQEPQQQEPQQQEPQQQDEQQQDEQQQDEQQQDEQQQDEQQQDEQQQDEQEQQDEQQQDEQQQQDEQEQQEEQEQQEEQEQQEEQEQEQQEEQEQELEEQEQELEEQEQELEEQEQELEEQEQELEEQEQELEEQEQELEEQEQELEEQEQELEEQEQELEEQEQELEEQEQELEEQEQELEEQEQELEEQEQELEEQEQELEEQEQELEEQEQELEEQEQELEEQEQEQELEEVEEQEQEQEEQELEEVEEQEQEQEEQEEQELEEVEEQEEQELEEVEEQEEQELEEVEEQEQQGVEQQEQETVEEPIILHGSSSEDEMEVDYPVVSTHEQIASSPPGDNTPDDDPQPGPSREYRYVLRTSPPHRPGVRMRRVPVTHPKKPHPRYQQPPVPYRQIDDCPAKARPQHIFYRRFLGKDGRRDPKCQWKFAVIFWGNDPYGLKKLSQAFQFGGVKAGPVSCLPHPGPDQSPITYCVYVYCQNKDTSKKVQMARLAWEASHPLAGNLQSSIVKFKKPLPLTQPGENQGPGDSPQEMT
Phospholipase A2, sequence (P04054 whole entry): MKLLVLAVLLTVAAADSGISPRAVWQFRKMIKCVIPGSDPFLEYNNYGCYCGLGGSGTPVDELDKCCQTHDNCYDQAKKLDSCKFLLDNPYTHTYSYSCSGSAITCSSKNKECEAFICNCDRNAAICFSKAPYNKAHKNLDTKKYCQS
Phosphomannomutase 2, sequence (O15305 whole entry): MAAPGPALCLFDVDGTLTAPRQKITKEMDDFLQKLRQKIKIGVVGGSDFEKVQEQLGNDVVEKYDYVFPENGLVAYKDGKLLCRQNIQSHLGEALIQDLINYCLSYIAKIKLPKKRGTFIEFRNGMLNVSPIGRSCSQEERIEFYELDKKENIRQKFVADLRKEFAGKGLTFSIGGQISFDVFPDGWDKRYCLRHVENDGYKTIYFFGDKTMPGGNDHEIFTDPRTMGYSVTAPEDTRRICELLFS
Eukaryotic translation initiation factor 4E, sequence (P63073 whole entry): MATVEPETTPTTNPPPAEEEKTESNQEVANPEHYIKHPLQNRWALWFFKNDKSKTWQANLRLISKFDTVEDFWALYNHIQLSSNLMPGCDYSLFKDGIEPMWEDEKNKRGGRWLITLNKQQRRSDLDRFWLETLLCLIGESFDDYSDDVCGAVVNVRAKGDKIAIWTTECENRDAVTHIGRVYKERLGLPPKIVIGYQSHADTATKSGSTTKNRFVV
Melanin-concentrating hormone receptor 1, sequence (Q99705 whole entry): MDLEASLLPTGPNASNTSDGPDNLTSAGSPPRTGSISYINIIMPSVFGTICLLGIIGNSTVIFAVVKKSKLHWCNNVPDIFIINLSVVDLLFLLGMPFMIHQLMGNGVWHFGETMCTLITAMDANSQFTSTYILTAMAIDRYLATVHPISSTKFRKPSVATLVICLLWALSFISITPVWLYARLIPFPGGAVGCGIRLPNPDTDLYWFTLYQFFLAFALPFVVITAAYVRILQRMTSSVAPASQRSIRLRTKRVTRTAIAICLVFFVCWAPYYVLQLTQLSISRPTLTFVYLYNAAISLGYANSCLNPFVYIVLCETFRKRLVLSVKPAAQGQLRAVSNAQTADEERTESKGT

O=C(Cn1nc(Cc2ccncc2)c2ccccc2c1=O)N1CCN(C(=O)c2ccco2)CC1
AC50 (ORF 73): 11.4 µM (active)

O=C(Nc1ccc(Oc2ccc(Cl)cc2)c(Cl)c1)c1cc(I)cc(I)c1O [RAFOXANIDE]
IC50 [1]: > 40 µM (inactive)
IC50 [2]: 19.7 µM (active)
IC50 [3]: 0.0095 µM (active)
IC50 [4]: 0.0169 µM (active)
IC50 [5]: 1.3 µM (active)
IC50 [6]: 0.0303 µM (active)
IC50 [7]: 0.0084 µM (active)
EC50 [8]: 0.08 µM (active)
IC50 [9]: 7.36 µM (active)
IC50 [10]: 0.0143 µM (active)
IC50 [11]: 0.0108 µM (active)
IC50 [12]: 0.054 µM (active)
EC50 (Streptococcus): 0.137 µM (active)

CC(=O)N/C(=C/c1ccc(OS(=O)(=O)c2ccc(C)cc2)cc1)C(=O)Nc1ccc(C(=O)O)cc1
AC50 (HeLa): 132 µM (active)

COc1ccc2[nH]c(O)c(N=NC(=O)Cc3cccs3)c2c1
IC50 [13]: 11 µM (active)
IC50 [14]: 31 µM (active)

O=C(NCc1cccc2ccsc12)c1cccs1
Kd (Chaperone protein dnaK): 0.2 µM (active)

O=C(O)C(c1ccccc1)N1C(=O)/C(=C\c2ccc(-c3cccc(Cl)c3)o2)SC1=S (stereo not given)
EC50 (Streptokinase A): 1.37 µM (active)
IC50 (Phospholipase A2): 11.2 µM (active)
EC50 [8]: 2.37 µM (active)
IC50 (Cysteine protease ATG4B): 4.41 µM (active)
EC50 [15]: 97.1 µM (inactive)
AC50 [16]: 3.54 µM (active)
AC50 (Salmon testes DNA): 40.7 µM (active)
EC50 (Streptococcus): 2.23 µM (active)
EC50 [17]: 50.3 µM (inactive)

COc1ccc(Oc2c(Cl)cnn(Cc3ccc(C)cc3)c2=O)cc1
IC50 [18]: 6.3 µM (active)

COC(=O)c1ccc2c(c1)SC1=C(O)CCCC1=N2
IC50 [19]: 6.11 µM (active)
IC50 (Protein Rev): > 75.4 µM (not active)
IC50 (Fibrinogen beta chain [20]): > 83.3 µM (inactive)
IC50 (Fibrinogen beta chain [21]): 17.9 µM (inactive)

Cc1c(O)n2c(nc1=O)sc1ccccc12
EC50 [22]: > 55.7 µM (not active)
EC50 [23]: > 55.7 µM (not active)

COc1ccc(N(C(=O)CCl)C(C(=O)NCS(=O)(=O)c2ccc(C)cc2)c2cccs2)cc1Cl (stereo not given)
AC50 [24]: 0.208 µM (active)
AC50 [25]: 0.083 µM (active)
AC50 [26]: 0.089 µM (active)
AC50 [27]: 0.347 µM (active)

COc1ccc2nc(N=C(S)N(C)C)sc2c1
IC50 [28]: 8.33 µM (active)
IC50 (Phosphomannomutase 2): > 100 µM (inactive)
IC50 [29]: > 64 µM (inactive)
EC50 [30]: > 60 µM (inconclusive)
IC50 [31]: 46.1 µM (active)
EC50 [32]: 2.03 µM (active)
IC50 [33]: 40.8 µM (active)
